Key:
[1] = cited from earlier work
[2] = tested on: U251 cell line (PTEN, TP53 and CDKN2A mutated); experiment: In-vitro relative growth assay (CellTiter 96 Aqueous One), U251 cell line; format: cell-based, human; conditions: FIG. 4A: Nelfinavir 5 μM, Metformin 0.5 mM, Rosuvastatin 12.5 μM, individually or combined, about 71 hours
Method: (§1) U251 cell line is procured from Sigma-Aldrich (Catalog number: 09063001). The U87 human cell line is procured from ATCC (American Type Culture Collection, Manassas, Va., ATCC® HTB-14TM). LN229 cell line is procured from ATCC (American Type Culture Collection, Manassas, Va., […]). […] 100 μl/well of the diluted sample is added to assay plate containing resuspended cells. […] The assay plate is incubated for about 71 hours followed by addition of about 20 μl of Promega Substrate CellTiter 96 Aqueous One Solution Reagent to each well. It is incubated at 37° C. The absorbance of the sample is read at about 490 nm.

[3] = tested on: LN229 cell line (TP53 and CDKN2A mutated); experiment: In-vitro relative growth assay (CellTiter 96 Aqueous One), LN229 cell line; format: cell-based, human; conditions: FIG. 4A: Nelfinavir 5 μM, Metformin 0.5 mM, Rosuvastatin 12.5 μM, individually or combined, about 71 hours
Method: as §1

[4] = tested on: U87 cell line (PTEN and CDKN2A mutated); experiment: In-vitro relative growth assay (CellTiter 96 Aqueous One), U87 cell line; format: cell-based, human; conditions: FIG. 4A: Nelfinavir 5 μM, Metformin 0.5 mM, Rosuvastatin 12.5 μM, individually or combined, about 71 hours
Method: [table] U251 cell line is procured from Sigma-Aldrich (Catalog number: 09063001). The U87 human cell line is procured from ATCC (American Type Culture Collection, Manassas, Va., ATCC® HTB-14TM). LN229 cell line is procured from ATCC (American Type Culture Collection, Manassas, Va., […]). […] DMSO, Digitoxin and drugs (Nelfinavir, Metformin and Rosuvastatin individually and in combination) are serial diluted in an assay media. 100 μl/well of the diluted sample is added to assay plate containing resuspended cells. […] The assay plate is incubated for about 71 hours followed by addition of about 20 μl of Promega Substrate CellTiter 96 Aqueous One Solution Reagent to each well. It is incubated at 37° C. The absorbance of the sample is read at about 490 nm.

[5] = cited from earlier work; remark: listed apart in the source
AKT = AKT (Homo sapiens, UniProt P31749); conditions: reported, PMID 23454896; inhibition of AKT phosphorylation at Ser473; cited from earlier work
HMG-CoA reductase = biological target: T1, HMG-CoA reductase (Homo sapiens, UniProt P04035); conditions: in vitro; cited from earlier work
T1 sequence (P04035 1-888): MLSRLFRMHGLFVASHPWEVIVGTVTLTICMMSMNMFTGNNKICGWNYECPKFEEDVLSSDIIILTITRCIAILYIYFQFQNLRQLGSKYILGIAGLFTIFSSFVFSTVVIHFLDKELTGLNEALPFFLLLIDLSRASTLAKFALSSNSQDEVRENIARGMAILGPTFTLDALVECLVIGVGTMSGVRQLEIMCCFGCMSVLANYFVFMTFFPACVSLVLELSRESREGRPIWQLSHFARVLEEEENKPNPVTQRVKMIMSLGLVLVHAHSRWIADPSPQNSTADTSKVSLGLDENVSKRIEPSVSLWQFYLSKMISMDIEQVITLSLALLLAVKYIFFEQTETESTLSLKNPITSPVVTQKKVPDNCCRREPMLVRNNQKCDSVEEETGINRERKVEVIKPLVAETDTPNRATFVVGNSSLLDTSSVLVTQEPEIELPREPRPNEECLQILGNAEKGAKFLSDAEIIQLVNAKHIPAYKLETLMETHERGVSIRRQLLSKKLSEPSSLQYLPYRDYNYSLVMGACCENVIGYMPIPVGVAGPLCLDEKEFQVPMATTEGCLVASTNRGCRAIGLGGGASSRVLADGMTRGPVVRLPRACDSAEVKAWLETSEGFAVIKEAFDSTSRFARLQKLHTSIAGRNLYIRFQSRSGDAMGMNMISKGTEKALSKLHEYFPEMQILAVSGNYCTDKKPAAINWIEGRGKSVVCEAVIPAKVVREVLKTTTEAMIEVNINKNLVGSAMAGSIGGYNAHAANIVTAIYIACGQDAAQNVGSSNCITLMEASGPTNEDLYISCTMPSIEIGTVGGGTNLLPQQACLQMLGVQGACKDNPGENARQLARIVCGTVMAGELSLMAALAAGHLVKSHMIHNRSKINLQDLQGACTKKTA

[6] = cited from earlier work; remark: listed apart in the source
[7] = oral 750 mg dose containing 14C-nelfinavir

Chain of AKT (P31749 whole entry): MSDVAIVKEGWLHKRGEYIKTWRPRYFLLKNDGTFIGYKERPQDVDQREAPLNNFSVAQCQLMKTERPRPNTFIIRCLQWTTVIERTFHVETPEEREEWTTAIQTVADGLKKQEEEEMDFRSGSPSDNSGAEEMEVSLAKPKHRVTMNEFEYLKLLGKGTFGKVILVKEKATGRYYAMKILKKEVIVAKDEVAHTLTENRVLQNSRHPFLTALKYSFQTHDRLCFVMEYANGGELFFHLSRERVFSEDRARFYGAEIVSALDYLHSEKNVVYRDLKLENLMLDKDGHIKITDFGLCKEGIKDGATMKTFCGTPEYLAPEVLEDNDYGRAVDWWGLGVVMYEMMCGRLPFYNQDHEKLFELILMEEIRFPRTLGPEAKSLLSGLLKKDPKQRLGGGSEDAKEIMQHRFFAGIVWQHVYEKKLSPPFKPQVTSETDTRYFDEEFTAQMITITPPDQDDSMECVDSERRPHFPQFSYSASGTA

## CC(C)c1nc(N(C)S(C)(=O)=O)nc(-c2ccc(F)cc2)c1/C=C/[C@@H](O)C[C@@H](O)CC(=O)O [Rosuvastatin, (E,3R,5S)-7-[4-(4-fluorophenyl)-2-[methyl(methylsulfonyl)amino]-6-propan-2-ylpyrimidin-5-yl]-3,5-dihydroxyhept-6-enoic acid]
[1]; after an intravenous dose
  total body clearance by the hepatic route: 72%
  total body clearance via the renal route: approximately 28%
[1]; following oral administration
  excreted in the feces (rosuvastatin and its metabolites): 90%
[1]; in vivo
  Bioavailability: approximately 20%
  Half-life: 19 h
  excreted as metabolite: ~10%
  increase of AUC by inhibitors of CYP2C9: less than 2 fold
  radiolabeled dose recovered as metabolite: approximately 10%
  share of the pharmacologic action accounted for by parent: greater than 90%
[2]
  reduction in relative growth: do not show much efficacy
[3]
  reduction in relative growth: do not show much efficacy
[4]
  reduction in relative growth: do not show much efficacy

## Cc1c(O)cccc1C(=O)N[C@@H](CSc1ccccc1)[C@H](O)CN1C[C@H]2CCCC[C@H]2C[C@H]1C(=O)NC(C)(C)C [Nelfinavir, (3S,4aS,8aS)-N-tert-butyl-2-[(2R,3R)-2-hydroxy-3-[(3-hydroxy-2-methylbenzoyl)amino]-4-phenylsulfanylbutyl]-3,4,4a,5,6,7,8,8a-octahydro-1H-isoquinoline-3-carboxamide]
[2]
  reduction in relative growth: do not show much efficacy
[5]; in humans, hepatic CYP450
  predominant enzymes that metabolize nelfinavir: CYP3A and CYP2C19
[5]; in vivo
  Half-life (terminal half-life in plasma): 3.5 to 5 h
[5]; [7]
  dose recovered in the feces: 87%
  dose recovered in urine: 1-2%
  fecal radioactivity as oxidative metabolites: 78%
  fecal radioactivity as unchanged nelfinavir: 22%
[5]; oral administration
  Absorption: Well absorbed
[3]
  reduction in relative growth: do not show much efficacy
AKT
  concentration causing AKT inhibition: 20 µM
[4]
  reduction in relative growth: do not show much efficacy

## CC(C)c1nc(NS(C)(=O)=O)nc(-c2ccc(F)cc2)c1/C=C/[C@@H](O)C[C@@H](O)CC(=O)O [N-desmethylrosuvastatin]
HMG-CoA reductase
  pharmacological activity relative to parent compound: approximately 50%

## CN(C)C(=N)N=C(N)N [Metformin, 1-carbamimidamido-N,N-dimethyl-methanimidamide]
[6]; after oral administration
  time of peak action: 3 h
[6]; in vivo
  Duration of action: 8 to 12 h
  time over which absorbed: 6 h
[6]; those with healthy renal function
  drug eliminated in 24 hours: Approximately 90%
